Measured values taken from publication PMC9122626 (2020).

Legend:
[1] = test system: human telomeric G4 DNA, dAGGG(TTAGGG)3 (DNA, G4) AGGGTTAGGGTTAGGGTTAGGG; test: ITC; settings: 298.15 K; 64 μM DNA in cell, 700 μM peptide in syringe
[2] = test system: ds26 (DNA, duplex) CAATCGGATCGAATTCGATCCGATTG; test: ITC; settings: Na+ 100 mM
[3] = test system: human telomeric G4 DNA, dAGGG(TTAGGG)3 (DNA, G4) AGGGTTAGGGTTAGGGTTAGGG; test: EMSA; settings: 30 μM G4; room temperature; up to 120 μM peptide
[4] = test system: human telomeric G4 DNA, dAGGG(TTAGGG)3 (DNA, G4) AGGGTTAGGGTTAGGGTTAGGG; test: CD melting (295 nm); settings: Na+ 100 mM; peptide concentration not given
[5] = test system: human telomeric G4 DNA, dAGGG(TTAGGG)3 (DNA, G4) AGGGTTAGGGTTAGGGTTAGGG; test: thiazole orange displacement (fluorescence); settings: 298 K; at ~8.4 μM peptide; thiazole orange displaced; 0.25 μM G4, 0.50 μM TO

SMILES: CC(C)[C@H](N)C(=O)N[C@@H](CCC(=O)N[C@@H](CCC(=O)O)C(=O)O)C(=O)N[C@@H](CCC(=O)O)C(=O)O (racemic)
- binding [1]: no
- Ka [2]: 3360 M⁻¹
- binding [3]: no
- Tm [4]: ~ -1 °C
- % TO displacement [5]: ~ 6.5%
